Measured values from US4318858A, “Thioethylamide derivatives” (Shionogi & Co., Ltd., priority 1979, dated 1982).

biological target: T1, histamine H2 receptor (Cavia porcellus, UniProt P47747); test: inhibition of the palpitation number of guinea pig's enucleated atrium (histamine antagonism); assay type: cell-based; conditions: compounds (I) as the oxalates
T1 construct: guinea pig's enucleated atrium; from tissue; host or cells: guinea pig isolated ("enucleated") atrium
Description: The pA2 value is defined as a negative logarithm of the concentratio
of the compound (I) required to shift the doseresponse of histamine to th
high concentration side by 2fold. [Ariens, E.J., Molecular Pharmacology,
(1964), Academic Press, New York and London].

T1 sequence (P47747 whole entry): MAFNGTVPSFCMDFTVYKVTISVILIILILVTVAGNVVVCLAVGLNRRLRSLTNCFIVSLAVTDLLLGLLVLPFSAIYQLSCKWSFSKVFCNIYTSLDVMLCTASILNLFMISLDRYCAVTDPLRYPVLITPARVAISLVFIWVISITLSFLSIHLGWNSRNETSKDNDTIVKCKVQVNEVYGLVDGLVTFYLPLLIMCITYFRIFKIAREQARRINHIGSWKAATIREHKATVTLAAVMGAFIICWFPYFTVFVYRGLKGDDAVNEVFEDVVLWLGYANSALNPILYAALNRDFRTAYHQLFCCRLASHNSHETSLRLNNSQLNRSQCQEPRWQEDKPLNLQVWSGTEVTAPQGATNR

Question: With `COC(=O)c1ccc(C(=O)NCCSCc2ccc(CN3CCCC3)s2)cc1` as the molecule, how does the Kb read?
Answer: 550 nM

Question: With `COC(=O)c1ccc(C(=O)NCCSCc2ccc(CN(C)C)o2)cc1` [Test No. 4] as the molecule, how does the Kb read?
Answer: 468 nM

Question: With `CC=CC=CC(=O)NCCSCc1ccc(CN(C)C)o1` [Test No. 5] as the molecule, how does the Kb read?
Answer: 1910 nM

Question: Which Kb does the source give for `CN(C)Cc1ccc(CSCCNC=O)o1` [Test No. 6] here?
Answer: 1860 nM

Question: For `CN(C)Cc1ccc(CSCCNC(=O)c2ccc(S(N)(=O)=O)cc2)o1` [Test No. 7], which Kb is on record?
Answer: 151 nM

Question: With `O=C(NCCSCc1ccc(CN2CCCC2)s1)c1ccc([N+](=O)[O-])cc1` [Test No. 9] as the molecule, how does the Kb read?
Answer: 912 nM

Question: For `Cc1cc(CSCCNC(=O)c2ccc(S(N)(=O)=O)cc2)sc1CN1CCCC1` [Test No. 10], which Kb is on record?
Answer: 2190 nM

Question: For `CC(C)c1cc(CN2CCCC2)sc1CSCCNC(=O)c1cccnc1` [Test No. 11], which Kb is on record?
Answer: 501 nM

Question: With `Cc1cc(CSCCNC(=O)c2ccc([N+](=O)[O-])cc2)oc1CN1CCCC1` [Test No. 12] as the molecule, how does the Kb read?
Answer: 851 nM

system: gastric acid secretion; test: gastric acid secretion inhibiting activity in Donryu male rats (pH value in the stomach); assay type: in vivo; conditions: Rattus norvegicus, oxalate

Question: With `CN(C)Cc1ccc(CSCCNC(=O)c2ccc(S(N)(=O)=O)cc2)o1.O=C(O)C(=O)O` [N-[2-[[(5-dimethylaminomethyl-2-furyl)-methyl]thio]ethyl]-4-sulfamoylbenzamide oxalate] as the molecule, how does the ED50 read?
Answer: 2.54 mg/kg

system: not listed separately; test: acute toxicity in mice; conditions: mouse, in vivo, iv, oxalate, read-out: acute toxicity LD50 i.v.

Question: Which LD50 does the source give for `CN(C)Cc1ccc(CSCCNC(=O)c2ccc(S(N)(=O)=O)cc2)o1.O=C(O)C(=O)O` [N-[2-[[(5-dimethylaminomethyl-2-furyl)-methyl]thio]ethyl]-4-sulfamoylbenzamide oxalate] here?
Answer: 150 mg/kg

same assay, conditions: mouse, in vivo, po, oxalate, read-out: acute toxicity LD50 p.o.

Question: Which LD50 does the source give for `CN(C)Cc1ccc(CSCCNC(=O)c2ccc(S(N)(=O)=O)cc2)o1.O=C(O)C(=O)O` [N-[2-[[(5-dimethylaminomethyl-2-furyl)-methyl]thio]ethyl]-4-sulfamoylbenzamide oxalate] here?
Answer: > 1000 mg/kg
